According to patent US10363298B2, “Immunomodulatory compounds” (priority 2014, dated 2019):
Read-outs that look alike come from different tables or passages of the source.

Legend:
[1] = target: influenza virus haemagglutinin (HA) monomer (Influenza A virus, UniProt P03437); details: read-out: affinity for its receptor; cited from earlier work
[2] = target: multivalent forms of VcCBM and SpCBM; assay: Surface plasmon resonance, summary statement for the multivalent forms; details: read-out: dissociation constants, SPR
Excerpt: Tandem-repeat multivalent protein, Vc4CBM, based on the Family 40^31 sialic acid binding domain (CBM) of the nanH gene encoding the sialidase from V. cholerae, was generated using PCR-based cloning techniques as described previously^8. Oligomerisation of the CBM domain from V. cholerae nanH sialidase, and from S. pneumoniae nanA sialidase, using the trimerisation domain from the pseudaminidase protein from Pseudomonas aeruginosa was engineered as follows: the DNA fragments encoding the CBM of V. cholerae sialidase residues 25-216, and that of S. pneumoniae nanA sialidase residues 121-305, respectively, were modified at the 5′ and 3′ termini by PCR amplification using primer pairs (Table 3) to incorporate different restriction sites to link one or two copies of the CBM unit in tandem for subsequent ligation to the gene encoding the trimerization domain from P. aeruginosa pseudaminidase residues 333-438 (PaTD). The resulting fragments were cloned either into an appropriately digested pEHISTEV vector (for VcCBM fragments) or pEGFP-HISTEV vector (for SpCBM fragments) to create constructs designated as VcCBMTD, Vc2CBMTD, SpCBMTD and Sp2CBMTD, respectively (FIG. 1). […] All constructs were propagated in E. coli DH5a cells, and constructs were verified by DNA sequencing, before transforming the expression host E. coli BL21 Gold (DE3) for protein production. […]

[3] = target: Vc4CBM (tandem-repeat multivalent protein of four sialic acid binding domains of V. cholerae NanH sialidase, residues 25-216, SEQ ID NO: 2) (Vibrio cholerae, UniProt A5F7A4); assay: Surface plasmon resonance (Biacore T-100): binding to immobilized multivalent, biotinylated α-2,3-sialyllactose-PAA; details: mean ± s.d. of three replicates
Excerpt: (§1) Tandem-repeat multivalent protein, Vc4CBM, based on the Family 40^31 sialic acid binding domain (CBM) of the nanH gene encoding the sialidase from V. cholerae, was generated using PCR-based cloning techniques as described previously^8. Oligomerisation of the CBM domain from V. cholerae nanH sialidase, and from S. pneumoniae nanA sialidase, using the trimerisation domain from the pseudaminidase protein from Pseudomonas aeruginosa was engineered as follows: the DNA fragments encoding the CBM of V. cholerae sialidase residues 25-216, and that of S. pneumoniae nanA sialidase residues 121-305, respectively, were modified at the 5′ and 3′ termini by PCR amplification using primer pairs (Table 3) to incorporate different restriction sites to link one or two copies of the CBM unit in tandem for subsequent ligation to the gene encoding the trimerization domain from P. aeruginosa pseudaminidase residues 333-438 (PaTD). The resulting fragments were cloned either into an appropriately digested pEHISTEV vector (for VcCBM fragments) or pEGFP-HISTEV vector (for SpCBM fragments) to create constructs designated as VcCBMTD, Vc2CBMTD, SpCBMTD and Sp2CBMTD, respectively (FIG. 1). […] All constructs were propagated in E. coli DH5a cells, and constructs were verified by DNA sequencing, before transforming the expression host E. coli BL21 Gold (DE3) for protein production.
(§2) Expression of engineered mCBMs was performed as described previously^8 with some modifications. Briefly, E. coli cells containing either His-tagged VcCBMs or GFP-His-tagged SpCBMs were lysed in a buffer containing PBS, 0.3M NaCl and 10 mM imidazole with DNAase (20 μg/ml) and protease (minus EDTA) inhibitor tablets (Roche). Clarified lysates were applied onto a HisTrap HP column, pre-charged with nickel (GE Healthcare) before elution of histidine-tagged CBMs using PBS containing 0.3 M NaCl and 250 mM imidazole. Removal of tag, unless otherwise stated, was performed by digestion in situ with TEV protease overnight before re-applying material to the nickel column. All mCBM proteins were further purified using size exclusion chromatography with a HiPrep 16/60 Sephacryl S200HR column (GE Healthcare) in PBS before using either a Vivapure S Maxi H (VcCBMs) or Q Maxi H (SpCBMs) column (Sartorius) to remove endotoxins. GFP-tagged proteins were also subjected to affinity chromatography and size exclusion chromatography as described above. […] Protein purity and size were verified by 12% SDS polyacrylamide gel electrophoresis and mass spectrometry. Purified mCBMs binding to sialic acid was verified by surface plasmon resonance (Biacore T-100, University of Edinburgh) using a streptavidin-coated biosensor chip immobilized with a multivalent, biotinylated α-2,3-sialyllactose-PAA (Glycotech) (Table 1).

[4] = target: VcCBMTD (CBM of V. cholerae NanH sialidase, residues 25-216, SEQ ID NO: 2, fused to trimerisation domain of P. aeruginosa pseudaminidase, residues 333-438, SEQ ID NO: 6) (Vibrio cholerae, UniProt A5F7A4); assay: as above; details: mean ± s.d. of three replicates
Excerpt: as §1, §2

[5] = target: Vc2CBMTD (two tandem CBMs of V. cholerae NanH sialidase, residues 25-216, SEQ ID NO: 2, fused to trimerisation domain of P. aeruginosa pseudaminidase, residues 333-438, SEQ ID NO: 6) (Vibrio cholerae serotype O1, UniProt A5F7A4); assay: as above; details: mean ± s.d. of three replicates
Excerpt: as §1, §2

[6] = read-out: ka (association ('on') rate constant), 15 °C
[7] = read-out: ka (association ('on') rate constant), 25 °C
[8] = read-out: ka (association ('on') rate constant), 37 °C
[9] = read-out: kd (dissociation ('off') rate constant), 15 °C
[10] = read-out: kd (dissociation ('off') rate constant), 25 °C
[11] = read-out: kd (dissociation ('off') rate constant), 37 °C

Molecule | Kd [1] | Kd [2] | kon [3, 6] | kon [3, 7] | kon [3, 8] | koff [3, 9] | koff [3, 10] | koff [3, 11] | kon [4, 6] | kon [4, 7] | kon [4, 8] | koff [4, 9] | koff [4, 10] | koff [4, 11] | kon [5, 6] | kon [5, 7] | kon [5, 8] | koff [5, 9] | koff [5, 10] | koff [5, 11]
sialic acid | ~2500 µM |  |  |  |  |  |  |  |  |  |  |  |  |  |  |  |  |  |  | 
CC(=O)N[C@H]1[C@H]([C@H](O)[C@H](O)CO)O[C@@](O[C@H]2[C@@H](O)[C@@H](CO)O[C@@H](O[C@H]3[C@H](O)[C@@H](O)C(O)O[C@@H]3CO)[C@@H]2O)(C(=O)O)C[C@@H]1O (stereo partly drawn) [α-2,3-sialyllactose] |  | < 0.001 µM | 540000 ± 10000 M⁻¹ s⁻¹ | 3.56e+06 ± 20000 M⁻¹ s⁻¹ | 2.98e+06 ± 20000 M⁻¹ s⁻¹ | 0.00051 ± 1e-05 s⁻¹ | 0.0016 ± 1e-05 s⁻¹ | 0.00541 ± 4e-05 s⁻¹ | 2.55e+06 ± 20000 M⁻¹ s⁻¹ | 7.24e+06 ± 60000 M⁻¹ s⁻¹ | 2.07e+07 ± 540000 M⁻¹ s⁻¹ | 0.0042 ± 2e-05 s⁻¹ | 0.0124 ± 0.0001 s⁻¹ | 0.107 s⁻¹ | 1.83e+06 ± 10000 M⁻¹ s⁻¹ | 1.73e+06 ± 10000 M⁻¹ s⁻¹ | 8.45e+06 ± 50000 M⁻¹ s⁻¹ | 0.00033 ± 1e-05 s⁻¹ | 0.0007 ± 1e-05 s⁻¹ | 0.00207 ± 1e-05 s⁻¹
